Assay results published in US8969026B2, “Polymeric reverse micelles as selective extraction agents and related methods of MALDI-MS analysis” (University of Massachusetts, priority 2007, dated 2015).
No end group written: not given here.

What was measured:
[1] = Control extraction of pI markers into toluene alone (no polymer); type: physicochemical; details: no reverse micelles / absence of polymer; pH independent
Method: Previously, it was shown for a series of peptides that charge complementarity exerts an important influence on the extraction process with these amphiphilic homopolymers. (See, M. Y. Combariza, E. N. Savariar, D. R. Vutukuri, S. Thayumanavan and R. W. Vachet, Anal. Chem. 2007, 79, 7124-7130.) Here, the importance of two other factors—hydrophobicity and aqueous solution pH—are assessed. Hydrophobicity might affect the extraction efficiency to some degree due to the toluene phase that surrounds the reverse micelles and the hydrocarbon functionality on the periphery of the reverse micelles. In order to investigate this effect, extractions of pI markers with different hydrophobicities were performed. As an example of the effect of hydrophobicity, the results from the extraction of two pI markers (4 and 7) at an aqueous phase pH of 6.0 are shown in FIG. 4. […]
(§1) A two-phase liquid-liquid extraction protocol that was previously developed was employed. […] The top (organic) layer was removed and the bottom (aqueous) layer was analyzed by fluorescence spectroscopy. […]
The amount of pI marker left in the bottom (aqueous) layer after extraction was determined on a Photon Technology International fluorometer (Ontario, Canada). Analysis of the organic phase was difficult because the fluorescence spectrum of the polymer in this phase was very broad, and in many cases overlapped with the signal from the pI markers. The excitation and emission wavelengths for each pI marker were chosen to maximize the fluorescence signal. […] For most of the pI markers, the fluorescence intensity was very low under more acidic conditions, making it difficult to collect data at these lower pHs. The fluorescence intensity of the aqueous phase after a given extraction was measured, and in each case the fluorescence intensity was used to determine the concentration of the pI marker remaining in the aqueous phase after the extraction. […]

[2] = fluorescent pI markers, cited from earlier work
[3] = Liquid-liquid extraction of pI markers by reverse micelles of homopolymer 3 in toluene, fluorescence of the aqueous phase; type: physicochemical; details: for extraction efficiency: aqueous pH 6.0, reverse micelles present in the toluene phase
Source text: The polymeric reverse micelle-like nanoassemblies have carboxylate groups in their interiors; therefore, positively charged pI markers are expected to be extracted. Upon extraction, the concentrations of the pI markers left in the aqueous phase were quantitatively determined by fluorescence spectroscopy. Analysis of the organic phase was difficult because the fluorescence spectrum of the polymer is very broad in this phase, and in many cases overlaps with the signal from the pI markers. As an example of the data from the aqueous solution, the fluorescence spectra of pI marker 2, before (solid line) and after extraction (dashed line), are shown in FIG. 3. […] The concentration of the pI marker remaining in the aqueous phase can be quantified, and in this example, it is determined that 46% of pI marker 2 remains, which means that 54% of it is extracted into the organic phase when the aqueous solution pH is 1.9. It is not surprising that most of this compound is extracted under these conditions. This marker hag a pI value of 3.0, and at an aqueous solution pH of 1.9, most of this compound is positively charged and therefore interacts favorably with the negatively-charged interior of the polymeric reverse micelles.
as §1
The amount of pI marker left in the bottom (aqueous) layer after extraction was determined on a Photon Technology International fluorometer (Ontario, Canada). Analysis of the organic phase was difficult because the fluorescence spectrum of the polymer in this phase was very broad, and in many cases overlapped with the signal from the pI markers. The excitation and emission wavelengths for each pI marker were chosen to maximize the fluorescence signal. […] For most of the pI markers, the fluorescence intensity was very low under more acidic conditions, making it difficult to collect data at these lower pHs. The fluorescence intensity of the aqueous phase after a given extraction was measured, and in each case the fluorescence intensity was used to determine the concentration of the pI marker remaining in the aqueous phase after the extraction. The amount of pI marker that was extracted by the reverse micelles was then calculated by subtracting the remaining aqueous phase concentration from the initial concentration (1×10^−6 M). The fluorescence measurements were repeated at least 3 times for each extracted sample and the average values are reported.

[4] = pH-dependent biphasic extraction of a peptide mixture with inverse micelles of polymer 1 in toluene, MALDI-MS ion abundance ratio; type: physicochemical; details: extraction at pH 7.1 followed by extraction at pH 5.5, organic phase
[5] = as above; type: physicochemical; details: polymer 1 inverse micelles in toluene, K = Iorg/Iaq, [M+H]+ signal, [M+K]+ for spinorphin and β-amyloid, at least 4 replicates; for Ion abundance ratio (K ± sM) pH 4.0: aqueous pH 4.0; for Ion abundance ratio (K ± sM) pH 7.1: aqueous pH 7.1; for Ion abundance ratio (K ± sM) pH 9.0: aqueous pH 9.0
Source text: The net charge within the inverse micelle of 1 is negative, affording a selective extraction of positively-charged peptides. In a typical experiment, a toluene solution containing 1 was mixed with an aqueous solution containing a mixture of peptides. After vortexing this mixture, the organic layer was separated and analyzed using MALDI-MS. […] Because the aqueous solution was buffered at a pH of 7.1, peptides with pI values above 7.1 were expected to be sequestered into the interior of the inverse micelles, while peptides with pI values below 7.1 would be mostly excluded based on Coulombic repulsion.
The ion abundance ratio is related to the extraction capacity of the polymer, and can be defined as the ratio of the MALDI ion abundance of the peptide in the organic phase that contains the inverse micelles (Iorg) to the ion abundance of the peptide remaining in the aqueous phase (Iaq) (K=Iorg/Iaq). These experiments were performed with the hypothesis that the extraction would be based on electrostatic interaction between the polymer and the peptide. To test this premise further, two control experiments were carried out. […] Therefore, a two-phase extraction experiment was done in the absence of homopolymer 1, and no peptide extraction into the organic phase was observed. Second, peptide extractions using a polymer without the negatively-charged functionality were performed. Polymer 2 contains charge-neutral pentaethyleneglycol functionalities instead of the carboxylic acid moieties. […] These two results are consistent with the hypothesis that the extraction is based on electrostatics.
Without limitation to any one theory or mode of operation, the pH of the overall aqueous solution is also likely to dictate the pH of the hydrated interiors of the inverse micelle where the binding takes place. Accordingly, extractions at three different pHs: 4.0, 7.1, and 9.0 were carried out; the results of these experiments are listed in Table 1. […] The results from experiments at pH 7.1 and 9.0 further support this idea. It should be noted that when the experiment is carried out at pH 9.0, the peptide with a pI of 7.7 is extracted to some extent. Such a result could be attributed to errors associated with aqueous solution pH measuring or to errors in the peptide pI calculation. Nonetheless, the tunability is still significant and therefore is a very useful result.
A Bruker Reflex III time-of-flight mass spectrometer was used to perform MALDI-MS analysis. The mass spectrometer is equipped with a 337-nm nitrogen laser, a 1.0 m flight tube, and a stainless steel sample target. All mass spectra were acquired in reflectron mode using a voltage of 16 kV. All reported spectra represent an average of 70 shots acquired at 30% laser power. The accelerating voltage was set to 20 kV.
A typical biphasic extraction procedure involves mixing 200 μL of a toluene solution of homopolymer 1 or 2 (1×10^−4 M) with 1 mL of an aqueous solution of peptide(s) that was buffered to pH ˜7.0 with 50 mM Tris/TrisHCl. The mixture is vortexed for 10 to 120 minutes and centrifuged at 12000 rpm for 30-40 minutes to break the resulting emulsion and separate the organic and aqueous layers. The top (organic) layer is then recovered and dried to obtain a solid residue. The residue is redissolved into 10 μL of THF and sonicated for 10 seconds to promote solubilization. Finally, 20 μL of an α-CHCA matrix solution (0.16 Min 60:40:0.3% THF:H2O:TFA) are added to the sample for a final volume of 30 μL. For MALDI-MS analysis the samples are applied to the target using the dried-droplet method, where 1 μL of the sample/matrix mixture is spotted on a stainless-steel target, and the solvent is evaporated at room temperature. The residual aqueous phase (˜1 mL) after extraction is also examined by MALDI-MS. […]

[6] = Extraction of a peptide mixture by positively charged imidazole polymer 4 at pH 4.5, MALDI-MS; type: physicochemical; details: each peptide 1.0×10^−6 M
Source text: Extraction of peptide mixture by positively charged polymer. Illustrating other embodiments of this invention, positively-charged polymers extract peptides with pI values below the aqueous solution pH. Without limitation, polymers with moieties comprising a positively charged nitrogenous group can be used with good effect. Representative of such embodiments, an imidazole-substituted polymer, 4, shown below, can be prepared using straight forward synthetic techniques of the sort described herein, and/or as are well-known to those skilled in the art.
At pH 4.5, kinetensin and angiotensin are positively-charged because the pH is below their pI values. […] FIG. 12C provides a mass spectrum of the aqueous phase after extraction at pH 4.5. The positively-charged peptides remain in the aqueous phase after extraction.

[7] = aqueous solution pH 1.9, polymer 3 reverse micelles in toluene

Row | percentage extracted into toluene alone [1] | extraction efficiency [3] | Molecule | pI [2] | extraction in the second step of the sequential extraction [4] | Ion abundance ratio (K ± sM) pH 4.0 [5] | Ion abundance ratio (K ± sM) pH 7.1 [5] | Ion abundance ratio (K ± sM) pH 9.0 [5] | other results
1 | 5.9±0.3% | 70±1.6% | CN(C)CCCNC(=O)c1cc(Cl)ccc1O [pI marker 7] | 8.1 |  |  |  |  | Pka1 [2]: 6.80; Pka ([2]; second pKa column): 9.30
2 |  |  | EDVGSNKGAIIGLM (listed as Homo sapiens) [β-Amyloid, human peptide purchased from American Peptide Company] |  | a small amount of β-amyloid was extracted | 17 ± 6 | 0.4 ± 0.2 | 0.10 ± 0.07 | 
3 | about 6.6±0.6% |  | O=C(O)c1cc(Cl)ccc1NCCO [pI marker 2] | 3.0 |  |  |  |  | percentage extracted into the organic phase [3, 7]: 54%; percentage of pI marker remaining in the aqueous phase after extraction [3, 7]: 46%
4 |  |  | LVVYPWT [Spinorphin, LVVYPWT] |  | extracted into the organic layer | 36 ± 12 | 2.0 ± 1.0 | 1.0 ± 0.5 | 
5 |  |  | SSEVAGEGDGDSMGHEDLY (listed as Homo sapiens) [Preproenkephalin, human peptide purchased from American Peptide Company] |  |  | 2.2 ± 0.9 | 0.4 ± 0.1 | 0.12 ± 0.04 | phase distribution after extraction [6]: a small percentage of the preproenkephalin is believed to remain in the aqueous phase
6 | 8.4±0.6% | 21.5±0.4% | O=C(CNc1ccccc1C(=O)O)NCCN1CCOCC1 [pI marker 4] | 5.1 |  |  |  |  | 
